From patent US20250262194A1, “PHARMACEUTICAL FOR TREATING OR PREVENTING CANCER” (CHUGAI SEIYAKU KABUSHIKI KAISHA, priority 2022, published 2025)
Structures can show the parent of a compound that is named as a salt.

Key:
[1] = tested on: phosphorylation of MEK and ERK and binding between KRAS and GTP within human cancer cells (NCI-H2122, NCI-H1373, NCI-H441, HPAC); assay: In vitro RAS signal inhibitory activity evaluation (Western blot); details: for attenuation of inhibition of pMEK and pERK by lapse of time (Western blot, FIGS. 2 and 3): cells recovered after 4, 24 or 72 hours, single-agent or combined treatment; for inhibition of pMEK, pERK, DUSP4 and DUSP6 (Western blot, FIGS. 2 and 3): 3, 10 or 30 nmol/L compound 1, 1000 nmol/L TNO155, 100 nmol/L GDC-1971
Procedure: The human cancer cells used were KRAS mutation-positive human lung cancer cell lines NCI-H2122 (KRAS-G12C mutation), NCI-H1373 (KRAS-G12C mutation), NCI-H441 (KRAS-G12V mutation) and HPAC (KRAS-G12D) (all, ATCC). These cells were inoculated to a three-dimensional culture plate PrimeSurface (Sumitomo Bakelite Co., Ltd.) containing a medium. The plate inoculated with the cells was cultured at 37° C. in a 5% carbon dioxide incubator for 24 hours. […] The plate thus subjected to single-agent treatment or combined treatment was cultured at 37° C. in a 5% carbon dioxide incubator. After a lapse of 4 hours, 24 hours or 72 hours, the cells were recovered. The recovered cells were lysed with Cell Lysis Buffer (Cell Signaling Technology, Inc.) containing protease and phosphatase inhibitors (Thermo Fisher Scientific Inc.) to obtain a protein solution.
RAS-GTP, an activated form of RAS, was recovered from a portion of the obtained protein solution using Active Ras Pull-Down and Detection Kit (Thermo Fisher Scientific Inc.). SDS-PAGE was carried out using the obtained RAS-GTP concentrated solution and the protein solution, and migrated proteins were transferred to a PVDF membrane using Trans-Blot Turbo Transfer System (Bio-Rad Laboratories, Inc.). After blocking, the PVDF membrane was reacted with a primary antibody and a secondary antibody in this order. The chemiluminescence of protein bands was caused with Chemi-lumi One Super (Nacalai Tesque, Inc.). The bands were detected with ChemiDoc Touch Imaging System (Bio-Rad Laboratories, Inc.).
“KRAS-GTP” depicts KRAS bound with GTP. “pMEK” and “pERK” depict phosphorylated MEK and ERK, respectively.

[2] = tested on: KRAS mutation-positive human cancer cell line NCI-H1373; assay: In vivo antitumor activity, NCI-H1373-transplanted models (Example 5); set-up: species or system nude mice; details: sodium salt of compound 1 0.25 mg/kg orally once a day and/or TNO155 10 mg/kg orally twice a day, 30 days
Procedure: (§1) Use in combination of the sodium salt of the compound 1 and TNO155 was evaluated for its in vivo antitumor activity using nude mice in which any of KRAS mutation-positive human cancer cell lines NCI-H1373, NCI-H358 and NCI-H441 (all, ATCC) was transplanted. The NCI-H1373 cells, the NCI-H358 cells, and the NCI-H441 cells were subcutaneously transplanted at 5×10^6, 1×10^7, and 5×10^6, respectively, per mouse to the mice. The mice were grouped (n=5) when a tumor volume reached approximately 150 to 300 mm^3.
(§2) The NCI-H1373-, NCI-H358- or NCI-H441-transplanted models received the single-agent administration or combined administration of the sodium salt of the compound 1 and TNO155. The sodium salt of the compound 1 was dissolved in solvent A for administration. TNO155 was diluted with 0.5% Tween 80 and 0.5% methyl cellulose prepared with injectable distilled water (solvent D) for administration.
(§3) Administration to the NCI-H1373-transplanted models was performed as described below. The sodium salt of the compound 1 and the solvent D were administered at 0.25 mg/kg and 10 ml/kg, respectively, to the single-agent administration group of the sodium salt of the compound 1. […]
(§4) The tumor volumes of the mice were calculated according to the expression (4). […]

[3] = tested on: KRAS mutation-positive human cancer cell line NCI-H358; assay: In vivo antitumor activity, NCI-H358-transplanted models (Example 5); set-up: species or system nude mice; details: sodium salt of compound 1 0.25 mg/kg orally once a day and/or TNO155 5 mg/kg orally twice a day, 21 days
Procedure: as §1, §2
as §3, with “NCI-H358-transplanted” for “NCI-H1373-transplanted”, “1. TNO155 and the solvent A were administered at 5 mg/kg and 10 ml/kg, respectively, to the single-agent administration group of TNO155.” for “1.”
as §4

[4] = tested on: KRAS mutation-positive human cancer cell line NCI-H441; assay: In vivo antitumor activity, NCI-H441-transplanted models (Example 5); set-up: species or system nude mice; details: sodium salt of compound 1 0.125 or 0.25 mg/kg orally once a day and/or TNO155 5 or 10 mg/kg orally twice a day, 13 days
Procedure: as §1, §2
Administration to the NCI-H441-transplanted models was performed as described below. The sodium salt of the compound 1 and the solvent D were administered at 0.125 mg/kg or 0.25 mg/kg and 10 ml/kg, respectively, to the single-agent administration group of the sodium salt of the compound 1. […]
as §4

[5] = tested on: KRAS-G12C mutation-positive human cancer cell line MIA PaCa-2; assay: In vivo antitumor activity, MIA PaCa-2 xenograft mice (Example 3); set-up: species or system nude mice; details: sodium salt of compound 1 0.25 mg/kg and/or sotorasib 10 mg/kg, orally once a day for 14 days
Procedure: (§8) This evaluation employed xenograft mice in which a KRAS-G12C mutation-positive human cancer cell line MIA PaCa-2 or NCI-H2122 (both, ATCC) was transplanted. The xenograft mice were prepared by subcutaneously transplanting 5×10^6 human cells per mouse to nude mice. After cell transplantation, the mice were grouped (n=8) when a tumor volume reached 200 to 340 mm^3.
The sodium salt of the compound 1 was dissolved in 10% DMSO/10% Cremophor EL/15% HP-β-CD (2-hydroxypropyl-β-cyclodextrin)/15% polyethylene glycol-400/50% injectable distilled water (solvent A) for administration. […] The sodium salt of the compound 1 and the solvent B were administered at 0.25 mg/kg and 20 ml/kg, respectively, to the single-agent administration group of the sodium salt of the compound 1. […] The solvent A and the solvent B were administered at 20 ml/kg and 20 ml/kg, respectively, to a control group. […] After the completion of the administration period, an observation period of 22 days was established.
The tumor volumes of the mice were calculated according to the expression (4) given below.
The body weights of the mice were measured.

[6] = tested on: KRAS-G12C mutation-positive human cancer cell line NCI-H2122; assay: In vivo antitumor activity, NCI-H2122 xenograft mice (Example 3); set-up: species or system nude mice; details: sodium salt of compound 1 0.25 or 0.75 mg/kg and/or adagrasib 100 mg/kg, orally once a day for 21 days
Procedure: as §8
The solvent A and the solvent C were administered at 10 ml/kg and 20 ml/kg, respectively, to a control group.
The tumor volumes of the mice were calculated according to the expression (4) given below. […] The ordinates of graphs (a) and (c) of FIG. 17 depict the tumor volumes (mm^3), and the abscissas thereof depict the number of days after cell transplantation.
The body weights of the mice were measured. […] The ordinates of graphs (b) and (d) of FIG. 17 depict the relative body weight change (%), and the abscissas thereof depict the number of days after cell transplantation.

[7] = tested on: KRAS mutation-positive human cancer cell line NCI-H441; assay: In vivo antitumor activity, NCI-H441-transplanted models (Example 4); set-up: species or system nude mice; details: sodium salt of compound 1 0.0625 mg/kg orally once a day for 10 days and/or bevacizumab 2.5 mg/kg intraperitoneal twice a week
Procedure: (§9) The cells of each line were subcutaneously transplanted at 5×10^6 per mouse to the mice. The mice were grouped (n=5) when a tumor volume reached 200 to 300 mm^3.
Administration to the NCI-H441-transplanted models was performed as described below. […] The solvent A was administered at 20 ml/kg to a control group.

[8] = tested on: KRAS mutation-positive human cancer cell line OV56; assay: In vivo antitumor activity, OV56-transplanted models (Example 4); set-up: species or system SCID mice; details: sodium salt of compound 1 0.25 mg/kg orally once a day for 10 days and/or bevacizumab 2.5 mg/kg intraperitoneal twice a week
Procedure: as §9
Administration to the OV56-transplanted models was performed as described below. […] The solvent A and physiological saline were administered at 20 ml/kg and 10 ml/kg, respectively, to a control group.

[9] = tested on: KRAS mutation-positive mouse colon cancer cell line CT26; assay: In vivo antitumor activity, CT26-transplanted models (Example 6); set-up: species or system BALB/C mice; details: sodium salt of compound 1 1 mg/kg orally once a day and/or anti-PD-L1 antibody 10 mg/kg intravenous twice a week, 21 days
Procedure: (§5) Use in combination of the sodium salt of the compound 1 and an anti-PD-L1 antibody was evaluated for its in vivo antitumor activity using BALB/C mice in which a KRAS mutation-positive mouse colon cancer cell line CT26 (Crown Bioscience) was transplanted and C57BL/6J mice in which a KRAS mutation-positive mouse lung cancer tissue slice mLU6054 (Crown Bioscience) was transplanted. The CT26 cells and the mLU6054 tissue slice were subcutaneously transplanted at 5×10^5 and a diameter of […], respectively, per mouse to the mice. The mice were grouped (n=8) when a tumor volume reached approximately 60 to 85 mm^3.
(§6) The CT26- or mLU6054-transplanted models received the single-agent administration or combined administration of the sodium salt of the compound 1 and the anti-PD-L1 antibody. The sodium salt of the compound 1 was dissolved in solvent E for administration. The anti-PD-L 1 antibody was diluted with PBS for administration.
(§7) Administration to the CT26- or mLU6054-transplanted models was performed as described below. The sodium salt of the compound 1 and PBS were administered at 1 mg/kg and 10 ml/kg, respectively, to the single-agent administration group of the sodium salt of the compound 1. […]
as §4

[10] = tested on: KRAS mutation-positive mouse lung cancer tissue slice mLU6054; assay: In vivo antitumor activity, mLU6054-transplanted models (Example 6); set-up: species or system C57BL/6J mice; details: sodium salt of compound 1 1 mg/kg orally once a day and/or anti-PD-L1 antibody 10 mg/kg intravenous twice a week, 21 days
Procedure: as §5, §6, §7, §4

| Structure (SMILES) | attenuation of inhibition of pMEK and pERK by lapse of time (Western blot, FIGS. 2 and 3) [1] | inhibition of pMEK, pERK, DUSP4 and DUSP6 (Western blot, FIGS. 2 and 3) ([1]; single-agent treatment) | tumor volume compared with the control group (FIG. 19A) [2] | tumor volume compared with the control group (FIG. 19B) [3] | tumor volume compared with the control group (FIG. 19C) [4] | inhibition of pMEK and pERK (Western blot, FIG. 1) ([1]; single-agent treatment, after 4 hours and 24 hours, 300 nmol/L compound 1) | tumor volume compared with the control group (FIG. 17a) [5] | tumor volume compared with the control group (FIG. 17c) [6] | tumor volume compared with the control group (FIG. 18a) [7] | tumor volume compared with the control group (FIG. 18b) [8] | tumor volume compared with the control group (FIG. 20a) [9] | tumor volume compared with the control group (FIG. 20b) [10] |
| --- | --- | --- | --- | --- | --- | --- | --- | --- | --- | --- | --- | --- |
| N[C@@H]1c2ccccc2OC12CCN(c1cnc3c(N4CCCc5ncccc54)n[nH]c3n1)CC2 [GDC-1971, (R)-1′-(3-(3,4-dihydro-1,5-naphtyridin-1(2H)-yl)-1H-pyrazolo[3,4-b]pyridin-6-yl)-3H-spiro[benzofuran-2,4′-piperidin]-3-amine] | tended to be attenuated as time passed | inhibited pMEK, pERK, DUSP4 and DUSP6 | – | – | – | – | – | – | – | – | – | – |
| C[C@@H]1OCC2(CCN(c3cnc(Sc4ccnc(N)c4Cl)c(N)n3)CC2)[C@@H]1N [TNO155, (3S,4S)-8-(6-amino-5-((2-amino-3-chloropyridin-4-yl)thio)pyrazin-2-yl)-3-methyl-2-oxa-8-azaspiro[4.5]decan-4-amine, reference compound] | tended to be attenuated as time passed | inhibited pMEK, pERK, DUSP4 and DUSP6 | suppressed increase in tumor volume | suppressed increase in tumor volume | suppressed increase in tumor volume | – | – | – | – | – | – | – |
| CNS(=O)(=O)Nc1nccc(Cc2cc(C(N)=O)c(Nc3ccc(C4CC4)cc3F)c(F)c2F)c1F [compound 1, 2-(4-cyclopropyl-2-fluoro-anilino)-3,4-difluoro-5-[[3-fluoro-2-(methylsulfamoylamino)-4-pyridyl]methyl]benzamide] | tended to be attenuated as time passed | inhibited pMEK, pERK, DUSP4 and DUSP6 | – | – | – | inhibited pMEK and pERK | – | – | – | – | – | – |
| CNS(=O)(=O)[N]([Na+])c1nccc(Cc2cc(C(N)=O)c(Nc3ccc(C4CC4)cc3F)c(F)c2F)c1F [sodium salt of the compound 1] | – | – | suppressed increase in tumor volume | suppressed increase in tumor volume | suppressed increase in tumor volume | – | suppressed increase in tumor volume | suppressed increase in tumor volume | suppressed increase in tumor volume | suppressed increase in tumor volume | suppressed increase in tumor volume | suppressed increase in tumor volume |
